# Laboratory results reported in patent publication US12486254B2, “Uracil derivatives for stimulating read-through of premature termination codons” (Southern Research Institute, priority 2022, dated 2025).
# Tested on: W134X-CF#14 FRT
# Test: Read-through of a premature termination codon, W134X-CF#14 FRT data, with G418
# Assay type: cell-based
# Conditions: in presence of G418
# Method: (§1) The compounds shown in Table 1 were evaluated for their ability to stimulate read-through of a premature termination codon, and their respective activities are shown in Tables 2 and 3 below.
row,SMILES,EC50 [µM]
1,CCn1c(=O)c(C(=O)CN2CCCC[C@@H]2C(=O)NCC(C)C)c(N)n(Cc2ccccc2)c1=O [1.156],11.4
2,CCn1c(=O)c(C(=O)CN2CCCC[C@@H]2C(=O)NCC(C)(C)C)c(N)n(Cc2ccccc2)c1=O [1.157],19.5
3,CCn1c(=O)c(C(=O)CN2CCCC[C@@H]2C(=O)NCC(F)(F)F)c(N)n(Cc2ccccc2)c1=O [1.159],4.91
4,NC(=O)C1CCCCN1CC(=O)c1c(N)n(CC2CCC2)c(=O)n(Cc2ccc(F)cc2)c1=O (stereo not shown) [1.160],28.4
5,CCn1c(=O)c(C(=O)CN2CCCCC2C(N)=O)c(N)n(Cc2ccc(F)cc2C)c1=O (stereo not shown) [1.161],13.9
6,CCn1c(=O)c(C(=O)CN2CCCCC2C(N)=O)c(N)n(Cc2ccc(F)c(C)c2)c1=O (stereo not shown) [1.163],8.05
7,CCn1c(=O)c(C(=O)CN(CC(N)=O)C(C)C)c(N)n(Cc2ccc(F)c(OC)c2)c1=O [1.170],≥ 100
8,CCn1c(=O)c(C(=O)CN2CCCCC2C(N)=O)c(N)n(Cc2ccc(F)cc2Cl)c1=O (stereo not shown) [1.173],42.1
9,CCn1c(=O)c(C(=O)CN2CCCC[C@@H]2C(N)=O)c(N)n(Cc2ccc(C(F)(F)F)cc2)c1=O [1.178],21.2
10,CCOc1ccc(C(C)NCC(=O)c2c(N)n(Cc3ccc(F)cc3)c(=O)n(CC)c2=O)cc1OCC (stereo not shown) [1.179],10.1
11,CCn1c(=O)c(C(=O)CN2CCCC[C@@H]2C(=O)NCc2ccc(F)cc2)c(N)n(Cc2ccc(F)cc2)c1=O [1.189],2.56
12,CCn1c(=O)c(C(=O)CN2CCCCC2)c(N)n(Cc2ccc(F)cc2)c1=O [1.193],47.2
13,CCn1c(=O)c(C(=O)CN2CCCC[C@@H]2C(=O)NCC(F)(F)F)c(N)n(Cc2ccc(F)cc2)c1=O [1.197],3.91
14,CC[C@H]1CCCCN1CC(=O)c1c(N)n(Cc2ccc(F)cc2)c(=O)n(CC)c1=O [1.199],9.5
15,CCn1c(=O)c(C(=O)CN2CCCCC2C)c(N)n(Cc2ccc(F)cc2)c1=O (stereo not shown) [1.200],34.9
16,CCC(C)C1CCCCN1CC(=O)c1c(N)n(Cc2ccc(F)cc2)c(=O)n(CC)c1=O (stereo not shown) [1.202],5.51
17,CCn1c(=O)c(C(=O)CN(CCC(N)=O)C(C)C)c(N)n(Cc2ccc(F)cc2)c1=O [1.204],12.5
18,CCn1c(=O)c(C(=O)CNc2cccc(C(N)=O)c2)c(N)n(Cc2ccc(F)cc2)c1=O [1.208],11.4
19,CCn1c(=O)c(C(=O)CN2CCCCC2C2CCC2)c(N)n(Cc2ccc(F)cc2)c1=O (stereo not shown) [1.210],6.68
20,CCn1c(=O)c(C(=O)CN(CC(=O)OC)C(C)C)c(N)n(Cc2ccc(F)cc2)c1=O [1.213],10.2

# Tested on: G542X#10-HBE5x5
# Test: Read-through of a premature termination codon, G542X#10-HBE5x5 (Table 3)
# Assay type: cell-based
# Conditions: with G418
# Method: as §1
row,SMILES,EC50 [µM]
1,CCn1c(=O)c(C(=O)CN(CC(N)=O)C(C)C)c(N)n(Cc2ccccc2)c1=O [1.1],≥ 100
2,CCOC(=O)C1CCN(CC(=O)c2c(N)n(Cc3ccccc3)c(=O)n(CC)c2=O)CC1 [1.6],≥ 100
3,CCn1c(=O)c(C(=O)CNC2CCOCC2)c(N)n(Cc2ccccc2)c1=O [1.10],≥ 100
4,CCn1c(=O)c(C(=O)CN2CCOCC2)c(N)n(Cc2ccccc2)c1=O [1.11],≥ 100
5,CCn1c(=O)c(C(=O)CN[C@H](C(=O)OC)C(C)C)c(N)n(Cc2ccccc2)c1=O [1.15],≥ 100
6,CCn1c(=O)c(C(=O)CN[C@@H](Cc2cnc[nH]2)C(=O)OC)c(N)n(Cc2ccccc2)c1=O [1.17],≥ 100
7,"CCOC(=O)CN(CC(=O)c1c(N)n(Cc2ccccc2)c(=O)n(CC)c1=O)C(C)C [1.18, ethyl 2-((2-(6-amino-1-benzyl-3-ethyl-2,4-dioxo-1,2,3,4-tetrahydropyrimidin-5-yl)-2-oxoethyl)(isopropyl)amino)acetate]",≥ 100
8,CCn1c(=O)c(C(=O)CN(C)C(C)C)c(N)n(Cc2ccccc2)c1=O [1.20],≥ 100
9,CCn1c(=O)c(C(=O)CN2CCC[C@H]2C(=O)OC)c(N)n(Cc2ccccc2)c1=O [1.23],≥ 100
10,CCn1c(=O)c(C(=O)CN(CC(N)=O)C2CC2)c(N)n(Cc2ccccc2)c1=O [1.35],≥ 100
11,CCn1c(=O)c(C(=O)CN(CC(=O)NC)C(C)C)c(N)n(Cc2ccccc2)c1=O [1.39],≥ 100
12,CCn1c(=O)c(C(=O)CN(CC(=O)N(C)C)C(C)C)c(N)n(Cc2ccccc2)c1=O [1.40],≥ 100
13,CCCNC(=O)CN(C)CC(=O)c1c(N)n(Cc2ccccc2)c(=O)n(C)c1=O [1.42],≥ 100
14,CCn1c(=O)c(C(=O)CN2CCCCC2C(N)=O)c(N)n(Cc2ccccc2)c1=O (stereo not shown) [1.48],≥ 100
15,NC(=O)C1CCCCN1CC(=O)c1c(N)n(Cc2ccccc2)c(=O)n(Cc2ccccc2)c1=O (stereo not shown) [1.50],30
16,NC(=O)C1CCCCN1CC(=O)c1c(N)n(Cc2ccccc2)c(=O)n(C2CCCCC2)c1=O (stereo not shown) [1.51],≥ 100
17,NC(=O)C1CCCCN1CC(=O)c1c(N)n(-c2ccc(F)cc2)c(=O)n(Cc2ccccc2)c1=O (stereo not shown) [1.65],≥ 100
18,CCN(CC)C(=O)C1CCCN(CC(=O)c2c(N)n(Cc3ccccc3)c(=O)n(CC)c2=O)C1 (stereo not shown) [1.66],≥ 100
19,CCn1c(=O)c(C(=O)CN2CCCCC2C(=O)N(C)C)c(N)n(Cc2ccccc2)c1=O (stereo not shown) [1.67],≥ 100

row,SMILES,EC50 [µM]
1,CN(C)C(=O)C1CCCCN1CC(=O)c1c(N)n(Cc2ccc(F)cc2)c(=O)n(Cc2ccc(F)cc2)c1=O (stereo not shown) [1.73],62.9
2,CC(C)N(CC(=O)c1c(N)n(Cc2ccc(F)cc2)c(=O)n(Cc2ccc(F)cc2)c1=O)CC(=O)N(C)C [1.74],≥ 100
3,CCn1c(=O)c(C(=O)CN2CCCCC2C(=O)N2CCOCC2)c(N)n(Cc2ccccc2)c1=O (stereo not shown) [1.87],≥ 100
4,CCn1c(=O)c(C(=O)CN2CCCCC2C(N)=O)c(N)n(Cc2ccc(F)cc2)c1=O (stereo not shown) [1.103],≥ 100
5,NC(=O)C1CCCCN1CC(=O)c1c(N)n(Cc2cccc(Cl)c2)c(=O)n(Cc2cccc(Cl)c2)c1=O (stereo not shown) [1.104],25
6,CCn1c(=O)c(C(=O)CN2CCCCC2c2nc3ccccc3n2C)c(N)n(Cc2ccccc2)c1=O (stereo not shown) [1.105],≥ 100
7,CCn1c(=O)c(C(=O)CN2CCCCC2c2nc3ccccc3[nH]2)c(N)n(Cc2ccccc2)c1=O (stereo not shown) [1.106],≥ 100
8,CCn1c(=O)c(C(=O)CN2CCCC[C@@H]2C(N)=O)c(N)n([C@H](C)c2ccccc2)c1=O [1.125],≥ 100
9,CCn1c(=O)c(C(=O)CN2CCCC[C@@H]2C(=O)N(C)C)c(N)n(Cc2ccc(F)cc2)c1=O [1.126],≥ 100
10,CCn1c(=O)c(C(=O)CN2CCCC[C@@H]2C(=O)N2CCCCC2)c(N)n(Cc2ccc(F)cc2)c1=O [1.129],≥ 100
11,CCn1c(=O)c(C(=O)CN2CCCC[C@@H]2C(=O)N2CCOCC2)c(N)n(Cc2ccc(F)cc2)c1=O [1.130],≥ 100
12,CCn1c(=O)c(C(=O)CN(CC(N)=O)C(C)C)c(N)n(Cc2ccc(F)cc2)c1=O [1.133],50.5
13,CCn1c(=O)c(C(=O)CN(CC(=O)N(C)C)C(C)C)c(N)n(Cc2ccc(F)cc2)c1=O [1.139],≥ 100
14,CCn1c(=O)c(C(=O)CN2CCCCC2C(N)=O)c(N)n(Cc2ccc(F)c(OC)c2)c1=O (stereo not shown) [1.164],≥ 100
15,CCn1c(=O)c(C(=O)CN2CCCC[C@@H]2C(=O)N2CCC(F)(F)CC2)c(N)n(Cc2ccc(F)cc2)c1=O [1.168],≥ 100
16,CCn1c(=O)c(C(=O)CN2CCCC[C@@H]2C(=O)NCC2CC2)c(N)n(Cc2ccc(F)cc2)c1=O [1.174],≥ 100
17,CCn1c(=O)c(C(=O)CNC(COC)c2ccccc2)c(N)n(Cc2ccc(F)cc2)c1=O (stereo not shown) [1.180],73.2
18,CCn1c(=O)c(C(=O)CNC(CN2CCCC2=O)c2ccccc2)c(N)n(Cc2ccc(F)cc2)c1=O (stereo not shown) [1.181],≥ 100
19,CCn1c(=O)c(C(=O)CN[C@H](C(N)=O)C(C)C)c(N)n(Cc2ccc(F)cc2)c1=O [1.187],≥ 100
